Patent US9187472B2 (AbbVie Inc., priority 2012, dated 2015)
pIC50: −log10 of the molar value.

Tested on: PC3 cells
Test: NAMPT Cell Proliferation Assay
Format: cell-based
Conditions: Homo sapiens, PC-3, 120 h, 5 days incubation, cell viability by Cell Titer Glo
How it was run: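 Cell Titer Glo viability after 5-day exposure (37° C, 5% CO2); PC3, 500 cells/well, RPMI + 10% heat-inactivated FBS, overnight attachment before dosing. Dose range 10 μM to 1×10^−5 μM, 10-fold steps. IC50 = sigmoidal fit of % inhibition.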

Row | SMILES | pIC50
1 | COC1CCC(C(=O)N2CCC(c3ccc(NC(=O)NCc4ccn5ccnc5c4)cc3)CC2)CC1 (stereo not drawn) [Example 1025, 1-(imidazo[1,2-a]pyridin-7-ylmethyl)-3-(4-{1-[(4-methoxycyclohexyl)carbonyl]piperidin-4-yl}phenyl)urea] | 9.09
2 | O=C(NCc1ccn2ccnc2c1)Nc1ccc(C2CCN(C(=O)c3cccc4c3OCCO4)CC2)cc1 [Example 1026, 1-{4-[1-(2,3-dihydro-1,4-benzodioxin-5-ylcarbonyl)piperidin-4-yl]phenyl}-3-(imidazo[1,2-a]pyridin-7-ylmethyl)urea] | 8.81
3 | O=C(NCc1ccn2ccnc2c1)Nc1ccc(C2CCN(C(=O)c3cncc4ccccc34)CC2)cc1 [Example 1027, 1-(imidazo[1,2-a]pyridin-7-ylmethyl)-3-{4-[1-(isoquinolin-4-ylcarbonyl)piperidin-4-yl]phenyl}urea] | 8.64
4 | Cc1nc2ccc(C(=O)N3CCC(c4ccc(NC(=O)NCc5ccn6ccnc6c5)cc4)CC3)cc2o1 [Example 1028, 1-(imidazo[1,2-a]pyridin-7-ylmethyl)-3-(4-{1-[(2-methyl-1,3-benzoxazol-6-yl)carbonyl]piperidin-4-yl}phenyl)urea] | 8.13
5 | Cc1cc(C(=O)N2CCC(c3ccc(NC(=O)NCc4ccn5ccnc5c4)cc3)CC2)n(C(C)(C)C)n1 [Example 1029, 1-(4-{1-[(1-tert-butyl-3-methyl-1H-pyrazol-5-yl)carbonyl]piperidin-4-yl}phenyl)-3-(imidazo[1,2-a]pyridin-7-ylmethyl)urea] | 9.57
6 | N#CC1(C(=O)N2CCC(c3ccc(NC(=O)NCc4ccn5ccnc5c4)cc3)CC2)CCCC1 [Example 1030, 1-(4-{1-[(1-cyanocyclopentyl)carbonyl]piperidin-4-yl}phenyl)-3-(imidazo[1,2-a]pyridin-7-ylmethyl)urea] | 8.69
7 | O=C(NCc1ccn2ccnc2c1)Nc1ccc(C2CCN(C(=O)c3cnnc4ccccc34)CC2)cc1 [Example 1031, 1-{4-[1-(cinnolin-4-ylcarbonyl)piperidin-4-yl]phenyl}-3-(imidazo[1,2-a]pyridin-7-ylmethyl)urea] | 8.11
8 | O=C(NCc1ccn2ccnc2c1)Nc1ccc(C2CCN(C(=O)c3ccc4cccnc4c3)CC2)cc1 [Example 1032, 1-(imidazo[1,2-a]pyridin-7-ylmethyl)-3-{4-[1-(quinolin-7-ylcarbonyl)piperidin-4-yl]phenyl}urea] | 8.05
9 | N#Cc1ccc(F)c(C(=O)N2CCC(c3ccc(NC(=O)NCc4ccn5ccnc5c4)cc3)CC2)c1 [Example 1033, 1-{4-[1-(5-cyano-2-fluorobenzoyl)piperidin-4-yl]phenyl}-3-(imidazo[1,2-a]pyridin-7-ylmethyl)urea] | 8.71
10 | O=C(NCc1ccn2ccnc2c1)Nc1ccc(C2CCN(C(=O)c3cc(C4CC4)no3)CC2)cc1 [Example 1034, 1-(4-{1-[(3-cyclopropyl-1,2-oxazol-5-yl)carbonyl]piperidin-4-yl}phenyl)-3-(imidazo[1,2-a]pyridin-7-ylmethyl)urea] | 8.20
11 | O=C(NCc1ccn2ccnc2c1)Nc1ccc(C2CCN(C(=O)c3cnc4c(c3)CCCC4)CC2)cc1 [Example 1035, 1-(imidazo[1,2-a]pyridin-7-ylmethyl)-3-{4-[1-(5,6,7,8-tetrahydroquinolin-3-ylcarbonyl)piperidin-4-yl]phenyl}urea] | 8.52
12 | O=C(NCc1ccn2ccnc2c1)Nc1ccc(C2CCN(C(=O)c3cnc4c(c3)CCCO4)CC2)cc1 [Example 1036, 1-{4-[1-(3,4-dihydro-2H-pyrano[2,3-b]pyridin-6-ylcarbonyl)piperidin-4-yl]phenyl}-3-(imidazo[1,2-a]pyridin-7-ylmethyl)urea] | 7.80
13 | O=C(NCc1ccn2ccnc2c1)Nc1ccc(C2CCN(C(=O)c3ccc4ccncc4c3)CC2)cc1 [Example 1037, 1-(imidazo[1,2-a]pyridin-7-ylmethyl)-3-{4-[1-(isoquinolin-7-ylcarbonyl)piperidin-4-yl]phenyl}urea] | 8.11
14 | O=C(NCc1ccn2ccnc2c1)Nc1ccc(C2CCN(C(=O)c3cnc4ccccc4n3)CC2)cc1 [Example 1038, 1-(imidazo[1,2-a]pyridin-7-ylmethyl)-3-{4-[1-(quinoxalin-2-ylcarbonyl)piperidin-4-yl]phenyl}urea] | 8.11
15 | COc1ncccc1/C=C/C(=O)N1CCC(c2ccc(NC(=O)NCc3ccn4ccnc4c3)cc2)CC1 [Example 1039, 1-(imidazo[1,2-a]pyridin-7-ylmethyl)-3-(4-{1-[(2E)-3-(2-methoxypyridin-3-yl)prop-2-enoyl]piperidin-4-yl}phenyl)urea] | 8.16
16 | O=C(NCc1ccn2ccnc2c1)Nc1ccc(C2CCN(C(=O)/C=C/c3ccccn3)CC2)cc1 [Example 1040, 1-(imidazo[1,2-a]pyridin-7-ylmethyl)-3-(4-{1-[(2E)-3-(pyridin-2-yl)prop-2-enoyl]piperidin-4-yl}phenyl)urea] | 7.87
17 | Cc1cc(Cl)c(C(=O)N2CCC(c3ccc(NC(=O)NCc4ccn5ccnc5c4)cc3)CC2)c(C)n1 [Example 1041, 1-(4-{1-[(4-chloro-2,6-dimethylpyridin-3-yl)carbonyl]piperidin-4-yl}phenyl)-3-(imidazo[1,2-a]pyridin-7-ylmethyl)urea] | 8.62

Row | SMILES | pIC50
18 | Cc1cccn2cc(C(=O)N3CCC(c4ccc(NC(=O)NCc5ccn6ccnc6c5)cc4)CC3)nc12 [Example 1042, 1-(imidazo[1,2-a]pyridin-7-ylmethyl)-3-(4-{1-[(8-methylimidazo[1,2-a]pyridin-2-yl)carbonyl]piperidin-4-yl}phenyl)urea] | 8.44
19 | CCOc1cc(C(=O)N2CCC(c3ccc(NC(=O)NCc4ccn5ccnc5c4)cc3)CC2)ccn1 [Example 1043, 1-(4-{1-[(2-ethoxypyridin-4-yl)carbonyl]piperidin-4-yl}phenyl)-3-(imidazo[1,2-a]pyridin-7-ylmethyl)urea] | 7.98
20 | Cn1c(C(=O)N2CCC(c3ccc(NC(=O)NCc4ccn5ccnc5c4)cc3)CC2)cc2occc21 [Example 1045, 1-(imidazo[1,2-a]pyridin-7-ylmethyl)-3-(4-{1-[(4-methyl-4H-furo[3,2-b]pyrrol-5-yl)carbonyl]piperidin-4-yl}phenyl)urea] | 8.17
21 | CC1Cc2cc(C(=O)N3CCC(c4ccc(NC(=O)NCc5ccn6ccnc6c5)cc4)CC3)ccc2O1 (stereo not drawn) [Example 1046, 1-(imidazo[1,2-a]pyridin-7-ylmethyl)-3-(4-{1-[(2-methyl-2,3-dihydro-1-benzofuran-5-yl)carbonyl]piperidin-4-yl}phenyl)urea] | 8.34
22 | CCn1ncc(Cl)c1C(=O)N1CCC(c2ccc(NC(=O)NCc3ccn4ccnc4c3)cc2)CC1 [Example 1047, 1-(4-{1-[(4-chloro-1-ethyl-1H-pyrazol-5-yl)carbonyl]piperidin-4-yl}phenyl)-3-(imidazo[1,2-a]pyridin-7-ylmethyl)urea] | 9.69
23 | N#Cc1cc(F)cc(C(=O)N2CCC(c3ccc(NC(=O)NCc4ccn5ccnc5c4)cc3)CC2)c1 [Example 1048, 1-{4-[1-(3-cyano-5-fluorobenzoyl)piperidin-4-yl]phenyl}-3-(imidazo[1,2-a]pyridin-7-ylmethyl)urea] | 8.08
24 | O=C(NCc1ccn2ccnc2c1)Nc1ccc(C2CCN(C(=O)c3cccc4ccncc34)CC2)cc1 [Example 1049, 1-(imidazo[1,2-a]pyridin-7-ylmethyl)-3-{4-[1-(isoquinolin-8-ylcarbonyl)piperidin-4-yl]phenyl}urea] | 8.62
25 | N#Cc1ccc(CC(=O)N2CCC(c3ccc(NC(=O)NCc4ccn5ccnc5c4)cc3)CC2)cc1 [Example 1050, 1-(4-{1-[(4-cyanophenyl)acetyl]piperidin-4-yl}phenyl)-3-(imidazo[1,2-a]pyridin-7-ylmethyl)urea] | 7.63
26 | COc1ccsc1C(=O)N1CCC(c2ccc(NC(=O)NCc3ccn4ccnc4c3)cc2)CC1 [Example 1051, 1-(imidazo[1,2-a]pyridin-7-ylmethyl)-3-(4-{1-[(3-methoxythiophen-2-yl)carbonyl]piperidin-4-yl}phenyl)urea] | 9.50
27 | N#Cc1cc(C(=O)N2CCC(c3ccc(NC(=O)NCc4ccn5ccnc5c4)cc3)CC2)ccc1F [Example 1052, 1-{4-[1-(3-cyano-4-fluorobenzoyl)piperidin-4-yl]phenyl}-3-(imidazo[1,2-a]pyridin-7-ylmethyl)urea] | 7.57
28 | O=C(NCc1ccn2ccnc2c1)Nc1ccc(C2CCN(C(=O)c3nc4c(s3)CCCC4)CC2)cc1 [Example 1053, 1-(imidazo[1,2-a]pyridin-7-ylmethyl)-3-{4-[1-(4,5,6,7-tetrahydro-1,3-benzothiazol-2-ylcarbonyl)piperidin-4-yl]phenyl}urea] | 8.47
29 | O=C(NCc1ccn2ccnc2c1)Nc1ccc(C2CCN(C(=O)c3nc4ccccc4s3)CC2)cc1 [Example 1054, 1-{4-[1-(1,3-benzothiazol-2-ylcarbonyl)piperidin-4-yl]phenyl}-3-(imidazo[1,2-a]pyridin-7-ylmethyl)urea] | 7.59
30 | CCc1cc(C(=O)N2CCC(c3ccc(NC(=O)NCc4ccn5ccnc5c4)cc3)CC2)on1 [Example 1055, 1-(4-{1-[(3-ethyl-1,2-oxazol-5-yl)carbonyl]piperidin-4-yl}phenyl)-3-(imidazo[1,2-a]pyridin-7-ylmethyl)urea] | 8.36
31 | C=CCn1nc(C)cc1C(=O)N1CCC(c2ccc(NC(=O)NCc3ccn4ccnc4c3)cc2)CC1 [Example 1056, 1-(imidazo[1,2-a]pyridin-7-ylmethyl)-3-[4-(1-{[3-methyl-1-(prop-2-en-1-yl)-1H-pyrazol-5-yl]carbonyl}piperidin-4-yl)phenyl]urea] | 8.89
32 | O=C(NCc1ccn2ccnc2c1)Nc1ccc(C2CCN(C(=O)c3ccc4snnc4c3)CC2)cc1 [Example 1057, 1-{4-[1-(1,2,3-benzothiadiazol-5-ylcarbonyl)piperidin-4-yl]phenyl}-3-(imidazo[1,2-a]pyridin-7-ylmethyl)urea] | 7.59
33 | CCc1nc(C(=O)N2CCC(c3ccc(NC(=O)NCc4ccn5ccnc5c4)cc3)CC2)cs1 [Example 1058, 1-(4-{1-[(2-ethyl-1,3-thiazol-4-yl)carbonyl]piperidin-4-yl}phenyl)-3-(imidazo[1,2-a]pyridin-7-ylmethyl)urea] | 8.60
